Reference: PMC9609429 (Pharmaceuticals, 2022)

How the values were obtained:
α1-adrenoceptor = α1-adrenoceptor radioligand binding assay ([3H]-prazosin, rat cerebral cortex); conditions: rat cortex tissue
Description: The α1-, α2-, and β1-adrenoceptor radioligand binding assay was carried out on the rat cerebral cortex. [^3H]-prazosin (19.5 Ci/mmol, α1-adrenoceptor), [^3H]-clonidine (70.5 Ci/mmol, α2-adrenoceptor), and [^3H]-CGP-12177 (48 Ci/mmol, β1-adrenergic receptor) were used as specific ligands. The brains were homogenized using ULTRA-TURRAX homogenizer in 10 mL of an ice-cold 50 mM Tris–HCl buffer (pH 7.6). Homogenates were centrifuged at 20,000× g for 20 min (0–4 °C). Next, the cell pellet was resuspended in the Tris–HCl buffer and centrifuged again. Radioligand binding assays were performed in plates (MultiScreen/Millipore). The final incubation mixture (volume 300 μL) consisted of 240 μL of the tissue suspension, 30 μL of radioligand solution, and 30 μL of the buffer containing 7–8 concentrations of the tested compound. […] The incubation was terminated by rapid filtration through Whatman GF/C filters using a vacuum manifold (Millipore). The filters were then washed twice with the assay buffer and placed in scintillation vials with a liquid scintillation cocktail. Radioactivity was measured in a WALLAC 1409 DSA liquid scintillation counter (Perkin Elmer, Waltham, MA, USA). All the assays were made in duplicates and the inhibitory constants (Ki) were estimated.

[1] = system: adrenaline-induced arrhythmia in rats; conditions: administered intravenously; cited from earlier work

| Structure (SMILES) | Adrenergic Receptors—pKi α1 (α1-adrenoceptor) | ED50 (adrenaline-induced arrhythmia) [1] |
| --- | --- | --- |
| Cc1ccc(N(CC2=NCCN2)c2cccc(O)c2)cc1 [Phentolamine, phentolamine, reference compound] | 8.04 |  |
| COc1ccccc1OCCNCC(O)COc1cccc2[nH]c3ccccc3c12 (centres unmarked) [carvedilol] |  | 0.36 mg/kg |
